Data set [1] has as its target T1, VMAT2 (Mus musculus, UniProt Q8BRU6). Description: Saturation binding of 18F ligands in mouse striatal homogenates. The arrangement: The basal forebrain regions of rat and mouse brains were then dissected; from tissue; host or cells: mouse striatal homogenate; mouse brain coronal sections. Conditions: estimated based on S.A.=2000 Ci/mmole. On the procedure: The basal forebrain regions of rat and mouse brains were then dissected. The tissue homogenates were prepared in 50 mM Hepes, pH 7.5 and 0.3 M sucrose. The specific binding of ^3H or ^18F ligands were determined following the procedures described (Scherman D, Raisman R, Ploska A, Agid Y., [^3H]Dihydrotetrabenazine, a new in vitro monoaminergic probe for human brain, J. Neurochem., 1988:50:1131-36). Total volume of reaction for the assay was 0.2 ml. […] In saturation experiments, increasing concentrations of labeled ligand […] in 50 μl buffer were incubated with 100 μl of homogenates (100-250 μg). Incubation was carried out routinely at room temperature for 90 min. The samples were then filtered through glass fiber filters No. 25 (Schleicher and Schuell, Keene, N.H.) and the bound radioactivity was determined for ^18F in a gamma counter (Packard 5000) with 70% efficiency. Filters containing bound ^3H ligand were dissolved in 7 ml Ecolite(+) overnight and the radioactivity was counted next day in the scintillation counter (Beckman) with 65% counting efficiency. […] Nonspecific binding was determined in the presence of 10 μM tetrabenazine. Both saturation and competition experiments were analyzed using the nonlinear least-square curve fitting program LIGAND. […]

A short description of data set [2]: Partition coefficient 1-octanol/phosphate buffer. In kind it is physicochemical. The following applies: pH 7.4, 1-octanol and phosphate buffer. On the procedure: Partition coefficients were measured by mixing the [^18F]tracer with 3 g each of 1-octanol and buffer (0.1 M phosphate, pH 7.4) in a test tube. The test tube was vortexed for 3 min at room temperature, followed by centrifugation for 5 min. Two weighed samples (0.5 g each) from the 1-octanol and buffer layers were counted in a well counter. The partition coefficient was determined by calculating the ratio of cpm/g of 1-octanol to that of buffer. Samples from the 1-octanol layer were re-partitioned until consistent partitions of coefficient values were obtained. Values are the mean±SEM of three independent experiments, each in duplicates.

Data set [3] in a line: Biodistribution of [18F]6a and [18F]6b in normal mice (iv injection). Type of data set: in vivo, ICR mice. On the procedure:
While under isoflurane anesthesia, 0.15 mL of a 0.1% bovine serum albumin solution containing [^18F]tracers (10-20 μCi) were injected directly into the tail vein of ICR mice (22-25 g, male) The mice (n=3 for each time point) were sacrificed by cervical dislocation at indicated time points post injection. The organs of interest were removed and weighed, and the radioactivity was counted with an automatic gamma counter. The percentage dose per organ was calculated by a comparison of the tissue counts to suitably diluted aliquots of the injected material. Total activities of blood were calculated under the assumption that they were 7% of the total body weight. The % dose/g of samples was calculated by comparing the sample counts with the count of the diluted initial dose.

The target of data set [4] is T1, VMAT2. Description: In vitro autoradiography of mouse brain sections. Type of data set: binding.
Data set [5] in a line: Uptake in diabetic mice (FIG. 6). Type of data set: in vivo.
The target in data set [6] is VMAT2 (Rattus norvegicus, UniProt Q01827). Put plainly: Competition for [3H](±)TBZ binding in rat striatal homogenates. The arrangement: The basal forebrain regions of rat and mouse brains were then dissected; from tissue; host or cells: rat striatum / basal forebrain homogenate. Conditions: [3H](±)TBZ 1.0-1.5 nM, Kd […] used for calculation.
Another data set concerns the target monoamine transporter (UniProt Q27963). The following applies: membranes of chromaffin granules and brain tissue samples; cited from earlier work.

Structures are written as SMILES. Where “and” joins values, the source holds several entries; their conditions need not be identical. Equal values may be shown once.

Consider four compounds from US8562949B2, “Radiolabeled dihydrotetrabenazine derivatives and their use as imaging agents” (The Trustees of the University of Pennsylvania, priority 2006, dated 2013).

T1 sequence (Q8BRU6 whole entry): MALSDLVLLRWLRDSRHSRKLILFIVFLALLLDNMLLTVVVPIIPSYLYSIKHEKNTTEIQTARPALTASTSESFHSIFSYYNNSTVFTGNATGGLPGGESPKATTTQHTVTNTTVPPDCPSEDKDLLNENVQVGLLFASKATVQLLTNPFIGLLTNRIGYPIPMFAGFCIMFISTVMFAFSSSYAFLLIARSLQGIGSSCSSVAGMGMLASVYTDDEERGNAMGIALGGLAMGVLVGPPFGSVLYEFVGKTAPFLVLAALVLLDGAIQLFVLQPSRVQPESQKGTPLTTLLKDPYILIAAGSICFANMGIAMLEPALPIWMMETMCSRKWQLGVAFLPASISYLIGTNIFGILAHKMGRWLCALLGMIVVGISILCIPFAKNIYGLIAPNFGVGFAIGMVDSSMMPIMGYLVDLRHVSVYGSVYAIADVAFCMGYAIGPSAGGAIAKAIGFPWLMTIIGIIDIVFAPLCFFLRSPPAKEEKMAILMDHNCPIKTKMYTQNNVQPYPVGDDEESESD
VMAT2 (Rattus norvegicus, UniProt Q01827), sequence (Q01827 whole entry): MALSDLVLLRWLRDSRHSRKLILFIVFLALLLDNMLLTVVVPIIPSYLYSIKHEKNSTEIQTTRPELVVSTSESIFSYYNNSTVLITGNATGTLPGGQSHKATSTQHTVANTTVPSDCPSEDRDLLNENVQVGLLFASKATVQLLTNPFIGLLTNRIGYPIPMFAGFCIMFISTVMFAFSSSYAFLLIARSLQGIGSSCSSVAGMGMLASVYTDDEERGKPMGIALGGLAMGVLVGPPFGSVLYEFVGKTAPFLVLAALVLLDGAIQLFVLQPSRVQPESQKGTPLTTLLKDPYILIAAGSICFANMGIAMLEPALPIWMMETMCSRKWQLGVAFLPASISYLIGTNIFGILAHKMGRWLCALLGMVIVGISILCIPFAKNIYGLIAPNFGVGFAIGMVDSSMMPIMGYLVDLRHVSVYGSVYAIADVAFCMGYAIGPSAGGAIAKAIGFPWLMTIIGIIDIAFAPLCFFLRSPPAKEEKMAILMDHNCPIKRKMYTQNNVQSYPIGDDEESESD

In the case of `COc1cc2c(cc1OCC[18F])CCN1CC(CC(C)C)C(O)CC21` (racemic) [[^18F]6a], on VMAT2 [1], the equilibrium dissociation constant (Kd) was 0.52 nM. The logD at 3 min in data set [2] was 2.12. The “remaining in brain (brain washout)” value in data set [3] (30 min p.i., normal mice) is given as above 50%. Also, the brain uptake in data set [3] (mice, iv, 2 min) amounted to 4.66 % ID/g. In data set [3] (mice, iv, time not stated), the ST/CB ratio came out at 1.9. For the same compound, in data set [3] (normal mice, iv, 2 min), the “Organ distribution Blood” value is given as 2.68 ± 0.37 % dose/g; the “Organ distribution Bone” value was 2.07 ± 0.05 % dose/g; the “Organ distribution Brain” value is 4.66 % dose/g and 4.66 ± 0.78 % dose/g; the “Organ distribution Heart” value is 4.49 ± 0.85 % dose/g. In data set [3] (normal mice, iv, 2 min), the “Organ distribution Kidney” value came out at 10.7 ± 3.06 % dose/g, the “Organ distribution Liver” value turned out to be 18.2 ± 4.14 % dose/g, the “Organ distribution Lung” value came to 5.83 ± 1.25 % dose/g and the “Organ distribution Muscle” value is 0.66 ± 0.10 % dose/g. Further, in data set [3] (normal mice, iv, 2 min), the “Organ distribution Skin” value amounted to 0.91 ± 0.10 % dose/g, the “Organ distribution Spleen” value was found to be 8.11 ± 0.90 % dose/g, the “Ratio (vs CB) Cortex” value is on record as 1.06 and the “Ratio (vs CB) Hippocampus” value was determined as 1.09. Besides, in data set [3] (normal mice, iv, 2 min), the “Ratio (vs CB) Striatum” value came to 1.23, the “Regional brain distribution Cerebellum (CB)” value came out at 4.42 ± 0.74 % dose/g, the “Regional brain distribution Cortex” value was 4.70 ± 0.66 % dose/g and the “Regional brain distribution Hippocampus” value is given as 4.84 ± 0.72 % dose/g. Moreover, in data set [3] (normal mice, iv, 2 min), the “Regional brain distribution Striatum” value came to 5.46 ± 0.80 % dose/g. In addition, in data set [3] (normal mice, iv, 15 min), the “Organ distribution Blood” value was 2.05 ± 0.17 % dose/g, the “Organ distribution Bone” value was 2.40 ± 0.23 % dose/g, the “Organ distribution Brain” value is 2.10 ± 0.25 % dose/g and the “Organ distribution Heart” value is listed as 1.99 ± 0.19 % dose/g. In data set [3] (normal mice, iv, 15 min), the “Organ distribution Kidney” value is 5.51 ± 1.55 % dose/g, the “Organ distribution Liver” value is recorded as 10.5 ± 1.48 % dose/g, the “Organ distribution Lung” value is 2.96 ± 0.30 % dose/g and the “Organ distribution Muscle” value amounted to 1.01 ± 0.02 % dose/g. For the same compound, in data set [3] (normal mice, iv, 15 min), the “Organ distribution Skin” value was 1.19 ± 0.03 % dose/g, the “Organ distribution Spleen” value came out at 2.77 ± 0.33 % dose/g, the “Ratio (vs CB) Cortex” value stood at 0.92 and the “Ratio (vs CB) Hippocampus” value is listed as 1.18. Besides, in data set [3] (normal mice, iv, 15 min), the “Ratio (vs CB) Striatum” value amounted to 1.91, the “Regional brain distribution Cerebellum (CB)” value was 1.97 ± 0.22 % dose/g, the “Regional brain distribution Cortex” value is 1.82 ± 0.19 % dose/g and the “Regional brain distribution Hippocampus” value is 2.33 ± 0.30 % dose/g. Also, the “Regional brain distribution Striatum” value in data set [3] (normal mice, iv, 15 min) amounted to 3.76 ± 0.51 % dose/g. For the same compound, in data set [3] (normal mice, iv, 30 min), the “Organ distribution Blood” value worked out at 2.27 ± 0.11 % dose/g; the “Organ distribution Bone” value was 3.88 % dose/g and 3.88 ± 0.47 % dose/g; the “Organ distribution Brain” value came out at 2.09 ± 0.09 % dose/g; the “Organ distribution Heart” value amounted to 2.14 ± 0.11 % dose/g. In data set [3] (normal mice, iv, 30 min), the “Organ distribution Kidney” value turned out to be 4.18 ± 0.33 % dose/g, the “Organ distribution Liver” value is reported as 8.85 ± 1.34 % dose/g, the “Organ distribution Lung” value was 2.83 ± 0.25 % dose/g and the “Organ distribution Muscle” value was determined as 1.52 ± 0.07 % dose/g. Also, in data set [3] (normal mice, iv, 30 min), the “Organ distribution Skin” value was 1.72 ± 0.11 % dose/g, the “Organ distribution Spleen” value came out at 2.62 ± 0.20 % dose/g, the “Ratio (vs CB) Cortex” value came out at 1.00 and the “Ratio (vs CB) Hippocampus” value is 1.03. Further, in data set [3] (normal mice, iv, 30 min), the “Ratio (vs CB) Striatum” value was 1.71, the “Regional brain distribution Cerebellum (CB)” value was 1.97 ± 0.14 % dose/g, the “Regional brain distribution Cortex” value was 1.96 ± 0.14 % dose/g and the “Regional brain distribution Hippocampus” value is recorded as 2.02 ± 0.10 % dose/g. Moreover, in data set [3] (normal mice, iv, 30 min), the “Regional brain distribution Striatum” value was determined as 3.37 ± 0.06 % dose/g. Further, in data set [3] (normal mice, iv, 1 hr), the “Organ distribution Blood” value came out at 1.75 ± 0.16 % dose/g, the “Organ distribution Bone” value is reported as 5.84 ± 1.42 % dose/g, the “Organ distribution Brain” value is 1.51 ± 0.20 % dose/g and the “Organ distribution Heart” value is recorded as 1.53 ± 0.15 % dose/g. In addition, in data set [3] (normal mice, iv, 1 hr), the “Organ distribution Kidney” value is recorded as 2.27 ± 0.39 % dose/g, the “Organ distribution Liver” value is reported as 3.88 ± 0.40 % dose/g, the “Organ distribution Lung” value turned out to be 1.74 ± 0.04 % dose/g and the “Organ distribution Muscle” value stood at 1.05 ± 0.03 % dose/g. Also, in data set [3] (normal mice, iv, 1 hr), the “Organ distribution Skin” value is given as 1.23 ± 0.06 % dose/g, the “Organ distribution Spleen” value was 1.56 ± 0.07 % dose/g, the “Ratio (vs CB) Cortex” value is 1.12 and the “Ratio (vs CB) Hippocampus” value turned out to be 1.05. In data set [3] (normal mice, iv, 1 hr), the “Ratio (vs CB) Striatum” value turned out to be 1.71, the “Regional brain distribution Cerebellum (CB)” value is listed as 1.85 ± 0.20 % dose/g, the “Regional brain distribution Cortex” value is given as 2.07 ± 0.42 % dose/g and the “Regional brain distribution Hippocampus” value was determined as 1.95 ± 0.49 % dose/g. For the same compound, the “Regional brain distribution Striatum” value in data set [3] (normal mice, iv, 1 hr) was 3.17 ± 0.79 % dose/g. Besides, in data set [3] (normal mice, iv, 2 hr), the “Organ distribution Blood” value was 1.38 ± 0.20 % dose/g, the “Organ distribution Bone” value came to 8.89 ± 0.75 % dose/g, the “Organ distribution Brain” value is on record as 1.13 ± 0.10 % dose/g and the “Organ distribution Heart” value is on record as 1.22 ± 0.13 % dose/g. In data set [3] (normal mice, iv, 2 hr), the “Organ distribution Kidney” value is given as 1.40 ± 0.30 % dose/g, the “Organ distribution Liver” value is 3.36 ± 0.32 % dose/g, the “Organ distribution Lung” value is 1.29 ± 0.19 % dose/g and the “Organ distribution Muscle” value came out at 0.73 ± 0.13 % dose/g. In data set [3] (normal mice, iv, 2 hr), the “Organ distribution Skin” value is reported as 0.85 ± 0.10 % dose/g, the “Organ distribution Spleen” value is recorded as 1.06 ± 0.10 % dose/g, the “Ratio (vs CB) Cortex” value was 0.81 and the “Ratio (vs CB) Hippocampus” value came to 1.12. Moreover, in data set [3] (normal mice, iv, 2 hr), the “Ratio (vs CB) Striatum” value worked out at 1.28, the “Regional brain distribution Cerebellum (CB)” value turned out to be 1.09 ± 0.03 % dose/g, the “Regional brain distribution Cortex” value came to 0.88 ± 0.21 % dose/g and the “Regional brain distribution Hippocampus” value was determined as 1.22 ± 0.18 % dose/g. For the same compound, in data set [3] (normal mice, iv, 2 hr), the “Regional brain distribution Striatum” value is on record as 1.39 ± 0.03 % dose/g.

`COc1cc2c(cc1OCCCF)CCN1CC(CC(C)C)C(O)CC21` (racemic) [[^18F]6b]: the “regional labeling in presence of 1 μM (±)TBZ” value on VMAT2 [4] is given as “completely eliminated”.

Consider `COc1cc2c(cc1OCCCF)CCN1CC(CC(C)C)C(O)CC21` (stereo not drawn) [FP-(+)-DTBZ], for which the “uptake in diabetic mice” value in data set [5] was “reduced”. The Ki at VMAT2 [6] is 0.1 nM.

For the compound `COc1cc2c(cc1OC)C1CC(O)C(CC(C)C)CN1CC2` (stereo not shown) [[^3H]dihydro-TBZ, 2-hydroxy-3-(2-methylpropyl)-9,10-dimethoxy-1,3,4,6,7,11b-hexahydro-2H-benzo[a]quinolizine], on monoamine transporter, the Kd was 2 to 9 nM.
